Laboratory results reported in article PMC6105827, “Antitrypanosomal 8-Hydroxy-Naphthyridines Are Chelators of Divalent Transition Metals” (Antimicrobial Agents and Chemotherapy, 2018).
Read-outs that look alike come from different tables or passages of the source.

Assays:
[1] = test system: L. donovani promastigotes; experiment: L. donovani promastigote compound sensitivity assay (with/without metal salts); details: for Tolerated concentration of exogenous metal salt: L. donovani promastigotes; for EC50: Leishmania donovani; for Shift: promastigotes
Procedure: (§1) The clonal Leishmania donovani cell line LdBOB (derived from MHOM/SD/62/1S-CL2D) was grown as promastigotes at 28°C, as described previously ([53]). Bloodstream-form T. brucei MiTat 1.2 clone 221a and its derived subline, 2T1, were cultured at 37°C in the presence of 5% CO2 in HMI9-T medium, as described previously ([54]). The human carcinoma HepG2 cell line was grown at 37°C with 5% CO2 in minimal Eagle's medium (MEM) with GlutaMAX (1×; Sigma-Aldrich), nonessential amino acids (Sigma-Aldrich), and 10% FBS. Human HepG2 and THP-1 cells used in this study were ethically sourced from the ATCC.
(§2) L. donovani intramacrophage ([7]), HepG2 ([55]), T. brucei ([56]), and L. donovani promastigote ([57]) compound sensitivity assays were carried out as described previously. Human HepG2 and THP-1 cells used in these assays were provided by the ATCC. Data were processed by using GRAFIT (version 5.0.4; Erithacus Software) and fitted to a 2-parameter equation to obtain the effective concentration inhibiting growth by 50% (EC50). Data are presented as the means of results from at least two independent experiments.
(§3) In the first instance, the maximum tolerated concentrations of ZnCl2, CaCl2, CuCl2, MgCl2, MnCl2, and FeCl2 were determined for each cell type. […] Standard drug sensitivity assays were carried out (as described above) for each cell type with compounds 1, 2, and 3 in the presence and absence of the maximum tolerated concentration of metal salt.

[2] = test system: T. brucei bloodstream forms; experiment: microbe, parasite or virus in culture
Procedure: as §1, §2, §3

[3] = test system: HepG2 cells; experiment: HepG2 compound sensitivity assay (with/without ZnCl2); details: for EC50: Homo sapiens
Procedure: as §1, §2, §3

[4] = Cell-free fluorescence-based (FluoZin-3 salt) zinc binding assay; details: compounds and DFMO 1 to 100 μM; TPEN 10 μM
Procedure: ZnCl2 (5 μM) was incubated with various concentrations of our three 8-HNT compounds followed by the addition of 125 nM FluoZin-3 salt dye. Reaction mixtures were preincubated for 20 min at RT and then aliquoted into a black 96-well plate. Fluorescence was then measured with a Pherastar spectrophotometer (excitation at 485 nm and emission at 520 nm). Calculations were carried out in Excel.

[5] = test system: L. donovani intramacrophage amastigotes; experiment: L. donovani intramacrophage compound sensitivity assay; format: cell-based; details: Leishmania donovani; L. donovani intramacrophage amastigotes; ≥3 independent replicates; read-out: Intra-macrophage EC50
Procedure: as §2

[6] = test system: THP-1 cells; experiment: THP-1 cell sensitivity; format: cell-based; details: Homo sapiens
Procedure: as §2

[7] = Spectrophotometric UV-Vis titration and Job's plot of binding to divalent cations; format: physicochemical; details: combined concentration 200 μM in methanol; absorbance 475/390/375 nm
Procedure: UV-visible (UV-Vis) titrations were carried out essentially as described previously ([65], [66]). Aliquots of metal divalent cations (concentrated stocks were made initially in water and then diluted in methanol) were added to a fixed concentration of 50 μM 8-HNT compound in methanol. After each aliquot addition, the incubation mixture was left to stabilize for 5 min at 25°C prior to scanning. Wavelength scanning was carried out at between 260 and 510 nm by using a UV-2401 PC UV-Vis spectrophotometer (Shimadzu). For Job's plot analyses ([66]), the combined concentration of 8-HNT and cation was fixed at 200 μM, and only the molar ratio of cation versus 8-HNT compound varied. Changes of the absorption at 475, 390, and 375 nm were indicative of cation complex formation with compounds 1 to 3, respectively. Specific absorbance at these wavelengths was determined and plotted against the molar ratio of compound to cation to determine complex stoichiometry ([66]).

[8] = test system: L. donovani promastigotes; experiment: Generation of an 8-HNT-resistant L. donovani cell line; format: cell-based, Leishmania donovani
Procedure: Resistant lines were generated as described previously ([31]), using compound 2 in L. donovani promastigotes. Starting at a sublethal concentration of 1 μM compound 2 in 3 independent cultures, concentrations were increased in a stepwise manner. However, after a total of 270 days in culture, promastigotes were unable to grow in ≥10 μM compound 2.

[9] = test system: T. brucei bloodstream forms; experiment: Intracellular Zn2+ measurement with FluoZin-3 in T. brucei; format: cell-based, Trypanosoma brucei; details: 8-HNT compounds 5 μM, TPEN 8 μM
Procedure: (§4) L. donovani promastigotes were grown to 2 × 10^7 cells ml^−1 and harvested by centrifugation (10 min at 1,600 × g). T. brucei bloodstream forms were grown to 2 × 10^6 cells ml^−1 and harvested by centrifugation (5 min at 800 × g). Parasites were washed with PBS and resuspended to a final concentration of 2.5 × 10^7 parasites ml^−1 in fresh PBS. Cells were incubated with FluoZin-3 (final concentration, 5 μM), pluronic acid (final concentration, 5 μM), and 14 mM glucose (T. brucei only). Parasites were incubated for 60 min at room temperature (RT), washed three times with PBS, and then resuspended in PBS (with 14 mM glucose for T. brucei only) before being aliquoted into a black, clear-bottomed 96-well plate (final concentration of 2.5 × 10^7 cells ml^−1). 8-HNT or control compounds were added directly to cells, and fluorescence was measured immediately by using a Pherastar fluorescence spectrophotometer (excitation at 485 nm and emission at 520 nm). Calculations were performed in Excel. […] Parasites were confirmed to be viable by microscopy after the completion of the experiment.

[10] = test system: L. donovani promastigotes; experiment: Intracellular Zn2+ measurement with FluoZin-3 in L. donovani; format: cell-based, Leishmania donovani; details: 8-HNT compounds 5 μM, TPEN 8 μM
Procedure: as §4

[11] = test system: L. donovani; details: cited from earlier work
[12] = test system: T. brucei; set-up: method as in PMID 11849643; details: cited from earlier work
[13] = test system: L. major; set-up: method as in PMID 7768775; details: cited from earlier work
[14] = read-out: EC50 against bloodstream-form T. brucei, substance alone (Fig. S2), mean ± SEM
[15] = read-out: EC50 values, WT, promastigotes, absence of cation, FeCl2 experiment
[16] = read-out: EC50 values, WT, promastigotes, absence of cation, ZnCl2 experiment
[17] = read-out: L. donovani pro EC50, promastigotes (Fig. 1)
[18] = Trypanosoma brucei, read-out: Mean EC50 ± SD, Plus cation, plus CaCl2 (3 mM)
[19] = Trypanosoma brucei, read-out: Mean EC50 ± SD, Plus cation, plus CuCl2 (5 μM)
[20] = Trypanosoma brucei, read-out: Mean EC50 ± SD, Plus cation, plus MgCl2 (1 mM)
[21] = Trypanosoma brucei, read-out: Mean EC50 ± SD, Plus cation, plus MnCl2 (10 μM)
[22] = Trypanosoma brucei, read-out: Mean EC50 ± SD, WT, absence of cation, CaCl2 experiment
[23] = Trypanosoma brucei, read-out: Mean EC50 ± SD, WT, absence of cation, CuCl2 experiment
[24] = Trypanosoma brucei, read-out: Mean EC50 ± SD, WT, absence of cation, FeCl2 experiment
[25] = Trypanosoma brucei, read-out: Mean EC50 ± SD, WT, absence of cation, MgCl2 experiment
[26] = Trypanosoma brucei, read-out: Mean EC50 ± SD, WT, absence of cation, MnCl2 experiment
[27] = Trypanosoma brucei, read-out: Mean EC50 ± SD, WT, absence of cation, ZnCl2 experiment
[28] = Trypanosoma brucei, read-out: T. brucei bsf EC50, bloodstream form (Fig. 1)

With `[Cl-].[Cl-].[Zn+2]` [ZnCl2] as the compound, how does the “Tolerated concentration of exogenous metal salt” value (from here on “Tolerated concentration”) [1] read?
Its value is 100 µM.

What about the “Maximum concentration of metal salt having a minimal impact on cell growth” value (“Maximum concentration” below) [2] of the same compound?
The value was 200 µM.

And the EC50 [2, 14]?
Its EC50 is 619000 ± 12600 nM.

And the “Tolerated concentration” value ([3]; HepG2 cells)?
Its value is 100 µM.

Which “Tolerated concentration” value [1] does the source give for `[Cl][Fe][Cl]` [FeCl2] here?
The value was 100 µM.

And the “Maximum concentration” value [2]?
Its value is 10 µM.

What about the EC50 [2, 14] of the same compound?
Its EC50 is 16800 ± 1400 nM.

Which “Maximum concentration” value ([2]; T. brucei) does the source give for `[Ca+2].[Cl-].[Cl-]` [CaCl2] here?
The value was 3000 µM.

With `NCCCC(N)(C(=O)O)C(F)F` (stereo not drawn) [DFMO, difluoromethylornithine, reference compound] as the compound, how does the “Effect of exogenous divalent cations, including Fe^2+ and Zn^2+, on potency against T. brucei” value ([2]; control) read?
Its value is “failed to alter the potency”.

And the EC50 [2, 14]?
Its EC50 is 39500 ± 900 nM.

What about the “Cell-free FluoZin-3 fluorescence (competition for Zn^2+ binding)” value [4] of the same compound?
Its value is “did not affect the fluorescence levels”.

With `[Cl][Cu][Cl]` [CuCl2] as the compound, how does the “Maximum concentration” value ([2]; T. brucei) read?
Its value is 5 µM.

Which results are given for `COc1ccccc1-c1nc(-c2nc(C)n[nH]2)c(O)c2ncccc12` [Compound 2]?
EC50 [5]: 600 nM; EC50 [1, 15]: 100 ± 10 nM; EC50 [1, 16]: 200 ± 40 nM; EC50 [1, 17]: 180 nM; Shift ([1]; FeCl2 (100 μM) vs WT): 6.8 fold; Shift ([1]; ZnCl2 (100 μM) vs WT): 265.7 fold; Shift (fold) ([2]; CaCl2 (3 mM) vs WT): 1.0 fold; Shift (fold) ([2]; CuCl2 (5 μM) vs WT): 0.9 fold; Shift (fold) ([2]; FeCl2 (10 μM) vs WT): 2.4 fold; Shift (fold) ([2]; MgCl2 (1 mM) vs WT): 1.1 fold; Shift (fold) ([2]; MnCl2 (10 μM) vs WT): 0.8 fold; EC50 [2, 18]: 1300 ± 60 nM; EC50 [2, 19]: 1300 ± 60 nM; EC50 [2, 20]: 900 ± 20 nM; EC50 [2, 21]: 1200 ± 50 nM; EC50 [2, 22]: 1200 ± 40 nM; EC50 [2, 23]: 1400 ± 70 nM; EC50 [2, 24]: 700 ± 60 nM; EC50 [2, 25]: 800 ± 50 nM; EC50 [2, 26]: 1400 ± 90 nM; EC50 [2, 27]: 800 ± 50 nM; EC50 [2, 28]: 790 nM; Shift (fold) ([2]; ZnCl2 (200 μM) vs WT): 19.7 fold; EC50 [6]: > 50000 nM; Shift of EC50 for HepG2 cells by ZnCl2 ([3]; 100 μM ZnCl2): 7 fold; EC50 ([3]; HepG2, read-out: EC50 for HepG2 cells, absence of exogenous ZnCl2): 47800 ± 3600 nM; EC50 ([3]; HepG2, read-out: HepG2 EC50): 15900 nM; Job's plot intercept, molar fraction (compound to Zn^2+) [7]: 0.31; Concentration in which promastigotes were unable to grow ([8]; after 270 days in culture, start 1 μM): ≥ 10 µM; Development of resistance in L. donovani promastigotes ([8]; stepwise increasing concentrations over a 9-month period): could not develop any resistance

What does the source list for `CC(NC(=O)c1ncc2cccnc2c1O)c1ccc(F)cc1` (stereo not drawn) [Compound 3]?
EC50 [5]: 200 nM; EC50 [1, 15]: 100 ± 4 nM; EC50 [1, 16]: 200 ± 10 nM; EC50 [1, 17]: 220 nM; Shift ([1]; FeCl2 (100 μM) vs WT): 1.9 fold; Shift ([1]; ZnCl2 (100 μM) vs WT): 120.1 fold; Shift (fold) ([2]; CaCl2 (3 mM) vs WT): 0.9 fold; Shift (fold) ([2]; CuCl2 (5 μM) vs WT): 1.1 fold; Shift (fold) ([2]; FeCl2 (10 μM) vs WT): 3.7 fold; Shift (fold) ([2]; MgCl2 (1 mM) vs WT): 0.9 fold; Shift (fold) ([2]; MnCl2 (10 μM) vs WT): 1.3 fold; EC50 [2, 18]: 700 ± 40 nM; EC50 [2, 19]: 800 ± 60 nM; EC50 [2, 20]: 700 ± 50 nM; EC50 [2, 21]: 1010 ± 40 nM; EC50 [2, 22]: 800 ± 100 nM; EC50 [2, 23]: 800 ± 50 nM; EC50 [2, 24]: 900 ± 30 nM; EC50 [2, 25]: 800 ± 50 nM; EC50 [2, 26]: 800 ± 50 nM; EC50 [2, 27]: 500 ± 30 nM; EC50 [2, 28]: 520 nM; Shift (fold) ([2]; ZnCl2 (200 μM) vs WT): 12.0 fold; EC50 [6]: > 16000 nM; EC50 ([3]; HepG2, read-out: HepG2 EC50): 16100 nM; Job's plot intercept, molar fraction (compound to Zn^2+) [7]: 0.35

For `c1ccc(CN(CCN(Cc2ccccn2)Cc2ccccn2)Cc2ccccn2)nc1` [TPEN, N,N,N′,N′-tetrakis(2-pyridylmethyl)ethane-1,2-diamine], which EC50 ([2]; Trypanosoma brucei, read-out: EC50 against bloodstream-form T. brucei, substance alone (Fig. S2), mean ± SEM) is on record?
The EC50 was 4100 ± 900 nM.

And the “Intracellular zinc level (FluoZin-3 fluorescence)” value [9]?
Its value is “decrease in fluorescence”.

And the “Intracellular zinc level (FluoZin-3 fluorescence)” value [10]?
Its value is “decrease in fluorescence”.

And the “Cell-free FluoZin-3 fluorescence (competition for Zn^2+ binding)” value [4]?
Its value is “reduction in the level of fluorescence”.

What about the “Inhibition of L. donovani in vitro” value [11] of the same compound?
The value was “inhibit”.

Which “Maximum concentration” value ([2]; T. brucei) does the source give for `[Cl-].[Cl-].[Mg+2]` [MgCl2] here?
The value was 1000 µM.

With `[Cl][Mn][Cl]` [MnCl2] as the compound, how does the “Maximum concentration” value ([2]; T. brucei) read?
Its value is 10 µM.

What does the source list for `CC(=O)N(O)CCCCCNC(=O)CCC(=O)N(O)CCCCCNC(=O)CCC(=O)N(O)CCCCCN` [deferoxamine]?
Growth inhibition of L. donovani in vitro [11]: inhibit the growth; Growth inhibition of T. brucei in vitro [12]: inhibit the growth; Growth inhibition of L. major in vitro [13]: inhibits the growth
